Five molecules from patent US20260199325A1, “NOVEL SUBSTITUTED PYRAZINE-CARBOXAMIDE-IMIDAZOPYRIDINE DERIVATIVES” (Boehringer Ingelheim International GmbH, priority 2022, published 2026) can be followed below.

The test has as its target T1, human metabotropic Glutamate 4 receptor (Homo sapiens, UniProt Q14833).
T1 construct: expressed in transfected cells; host or cells: HEK293
Briefly: In vitro testing of mGluR4 potency (Assay A), cAMP HTRF in HEK293 cells. In kind it is cell-based. The settings on record: for pIC50: HEK293 cell overexpressing human mGluR4, 10 uM L-Glutamic acid, 1 uM forskolin. As for the experimental part: A. In Vitro Testing of mGluR4 Potency
The in vitro activity of the compounds according to the invention may be investigated as follows:
The HEK293 cell overexpressing the human metabotropic Glutamate 4 receptor were thawed at 37° C. and immediately diluted with cell culture medium. After centrifugation, the cell pellet is re-suspended in medium and then distributed from a stirred spinner flask into the wells of the assay plate. The plates are incubated for one hour at room temperature before they are incubated for 24 hours at 37° C./5% C02. After washing the cells in the plate three times with 80 uL HBSS/HEPES buffer (10 uL buffer remained in the wells after washing), 5 uL per well of compounds diluted in HBSS/HEPES buffer containing 0.2% BSA (final concentration: 0.1%) and 1 mM IBMX (final concentration: 0.5 mM) are added to the wells of the assay plate. Thereafter 5 uL per well of L-Glutamic acid (final concentration: 10 uM), forskolin (final concentration: 1 uM) and 1 mM IBMX (final concentration: 0.5 mM) dissolved in HBSS/HEPES buffer containing 0.2% BSA (final concentration: 0.1%) are added to the assay plate (final DMSO concentration: 1%). Several wells of the assay plate are used either for the positive and the negative controls or for the cAMP standard curve. The assay plate is incubated for 30 minutes at room temperature. Then 5 ul per well of Anti-cAMP-Antibody-d2 solution and 5 ul per well of cAMP-Europium Cryptate dilution are added to all wells of the plate and the plate is incubated another 60 minutes light protected at room temperature. The emission at 615 nm and 665 nm (Excitation wavelength: 320 nm) are measured on the EnVision™ reader (PerkinElmer). The ratio between the emission at 665 nm and 615 is calculated by the reader. The whole assay is performed in the dark or under green light.
The cAMP standard is prepared by diluting the cAMP stock solution with HBSS/Hepes buffer: 5 μl/well of the cAMP dilutions (in HBSS/Hepes buffer containing 1 mM IBMX and 0.2% BSA-final concentration: 0.5 mM IBMX and 0.1% BSA) are added to 10 ul/well HBSS/Hepes buffer plus 5 ul/well 4% DMSO in HBSS/Hepes containing 0.2% BSA (final DMSO concentration: 1%-like in the wells containing compounds) in the wells of the assay plate. The final cAMP concentrations in the assay plate were: 0, 0.17, 0.69, 2.78, 11.1, 44.5, 178, and 712 nM (two wells/cAMP concentration).
Each assay microtiter plate contained also wells with vehicle controls instead of compound as controls for L-Glutamic acid induced signal (negative control; 100% CTL; 10 uM L-Glutamic acid+1 uM forskolin+0.5 mM IBMX+1% DMSO) and wells with vehicle controls without L-Glutamic acid as controls for non-specific changes in signal (positive control; 0% CTL; 0 uM L-Glutamic acid+1 uM forskolin+0.5 mM IBMX+1% DMSO).
The analysis of the data is performed by the calculation the ratio between the emission at 665 nm and the emission at 615 nm (Em665/Em615 ratio). Thereafter the signals of the compounds are normalized using the positive and negative controls by the following formula:
PoC=100×((Signal Sample−Positive Control)/(Negative Control−Positive Control))
A general note: Time-resolved FRET reads energy transfer from a long-lived donor to a nearby acceptor.

pIC50: −log10 of the molar value.

T1 sequence (Q14833 33-912): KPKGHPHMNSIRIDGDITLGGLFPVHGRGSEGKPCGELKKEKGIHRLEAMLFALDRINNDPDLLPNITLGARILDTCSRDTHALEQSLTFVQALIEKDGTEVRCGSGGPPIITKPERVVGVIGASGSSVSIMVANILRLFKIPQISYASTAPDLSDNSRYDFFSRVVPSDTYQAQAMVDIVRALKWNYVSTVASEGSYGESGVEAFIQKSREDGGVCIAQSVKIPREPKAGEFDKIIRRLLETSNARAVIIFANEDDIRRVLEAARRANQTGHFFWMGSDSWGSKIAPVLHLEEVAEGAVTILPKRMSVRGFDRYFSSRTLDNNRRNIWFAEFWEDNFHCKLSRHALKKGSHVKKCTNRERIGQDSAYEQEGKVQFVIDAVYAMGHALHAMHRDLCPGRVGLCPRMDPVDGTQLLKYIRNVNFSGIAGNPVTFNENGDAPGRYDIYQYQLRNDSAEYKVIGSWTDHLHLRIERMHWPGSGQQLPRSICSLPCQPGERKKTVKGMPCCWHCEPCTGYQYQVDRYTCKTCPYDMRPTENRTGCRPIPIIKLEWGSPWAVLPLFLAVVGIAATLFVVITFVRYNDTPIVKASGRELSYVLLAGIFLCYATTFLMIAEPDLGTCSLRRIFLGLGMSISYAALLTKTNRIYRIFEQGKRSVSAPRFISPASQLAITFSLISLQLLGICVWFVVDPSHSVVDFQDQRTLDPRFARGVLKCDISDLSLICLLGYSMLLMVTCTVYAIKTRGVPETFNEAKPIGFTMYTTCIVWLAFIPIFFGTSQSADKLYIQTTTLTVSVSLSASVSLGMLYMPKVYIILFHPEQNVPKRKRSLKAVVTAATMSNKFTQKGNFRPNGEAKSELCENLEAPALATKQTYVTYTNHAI

On to `CCn1c([C@@H](NC(=O)c2cnc(C)cn2)C2CC2)nc2cc(C(F)(F)F)ncc21` [Example 47, N-[(S)-cyclopropyl[3-ethyl-6-(trifluoromethyl)-3H-imidazo[4,5-c]pyridin-2-yl]methyl]-5-methylpyrazine-2-carboxamide], for which the pIC50 (Table 2) is 7.39.
In the case of `CCn1c([C@@H](NC(=O)c2cnc(C(F)F)cn2)C2CC2)nc2cc(C(F)(F)F)ncc21` [Example 48, N-[(S)-cyclopropyl[3-ethyl-6-(trifluoromethyl)-3H-imidazo[4,5-c]pyridin-2-yl]methyl]-5-(difluoromethyl)pyrazine-2-carboxamide], for the setting “Table 2”, the pIC50 is 7.32.
For the setting “Table 2”, `CCn1c([C@@H](NC(=O)c2cnc(C(F)F)cn2)C2CC2)nc2cnc(C(F)(F)F)cc21` [Example 49, N-[(S)-cyclopropyl[1-ethyl-6-(trifluoromethyl)-1H-imidazo[4,5-c]pyridin-2-yl]methyl]-5-(difluoromethyl)pyrazine-2-carboxamide] had a pIC50 of 7.28.
As for `Cc1cnc(C(=O)N[C@H](c2nc3cnc(C(F)(F)F)cc3n2C(C)C)[C@@H]2COCCO2)cn1` [Example 50, N-[(R)-[(2R)-1,4-dioxan-2-yl][1-(propan-2-yl)-6-(trifluoromethyl)-1H-imidazo[4,5-c]pyridin-2-yl]methyl]-5-methylpyrazine-2-carboxamide], the negative-log IC50 (pIC50) (Table 2) is 7.10.
As to `Cn1nccc1C(=O)N[C@H](c1nc2ccc(Br)nc2[nH]1)[C@H]1CC[C@H](C)CC1` [Intermediate 213 in WO2019/138017 (regioisomere 2), reference compound], the “activity as mGluR4 modulators in Assay A (in words)” value is “no therapeutically relevant activity”. This molecule also showed a pIC50 (Table 1) of 4.88.

As usually defined, the pIC50 is the negative decadic logarithm of the IC50, by convention in mol/L. Low values mean a large IC50, high ones a small IC50.
